Structures are written as SMILES. Calls of active or inactive are those of the source. No cut-off for these calls is given here. Some results are limits rather than exact numbers.

For one data set, the system named is Influenza A virus. Briefly: Antiviral activity against Influenza A virus A/PR/8 (H1N1) infected in MDCK cells assessed as inhibition of viral growth incubated for 48 hrs by indirect immunofluorescence assay. In kind it is functional, organism-based.
Data set [1] in a line: Cytotoxicity against MDCK cells assessed as reduction in cell viability incubated for 48 hrs by CellTiter-Glo assay. It counts as toxicity, cell-based, Canis lupus familiaris. As to conditions: dog.
Data set [2] is described as follows: Selectivity index, ratio of CC50 for cytotoxicity against MDCK cells to EC50 for antiviral activity against Influenza A virus A/PR/8 (H1N1) infected in MDCK cells. In kind it is toxicity, cell-based. As to conditions: dog, read-out: Ratio CC50/EC50.
The subject of data set [3] is Splenocyte. Description: Immunosuppressive activity in BALB/c mouse splenocyte assessed as reduction in ConA-induced mouse T-lymphocytes proliferation incubated for 48 hrs by MTT assay. In kind it is functional, cell-based.
In data set [4] the test system is Splenocyte. Description: Immunosuppressive activity in BALB/c mouse splenocytes assessed as reduction in LPS-induced mouse B-lymphocytes proliferation incubated for 48 hrs by MTT assay. In kind it is functional, cell-based.
The nature of data set [5]: Cytotoxicity against BALB/c mouse Splenocyte assessed as reduction in cell viability incubated for 48 hrs by MTT assay. It counts as toxicity, cell-based. The note with it: splenocytes.
Data set [6] in a line: Selectivity index, ratio of CC50 for cytotoxicity in BALB/c mouse splenocytes to EC50 for immunosuppressive activity in BALB/c mouse splenocytes assessed as reduction in ConA-induced mouse T-lymphocytes proliferation. It counts as toxicity, cell-based. The note with it: read-out: Ratio CC50/EC50.
Data set [7] can be described thus: Selectivity index, ratio of CC50 for cytotoxicity in BALB/c mouse splenocytes to EC50 for immunosuppressive activity in BALB/c mouse splenocytes assessed as reduction in LPS-induced mouse B-lymphocytes proliferation. In kind it is toxicity, cell-based. The note with it: read-out: Ratio CC50/EC50.
The subject of another data set is HCT-116. Description: Cytotoxicity against human HCT-116 cells assessed as inhibition of cell growth by MTT assay. It counts as functional, cell-based.
Another data set deals with HT-29. Briefly: Cytotoxicity against human HT-29 cells assessed as inhibition of cell growth by MTT assay. It counts as functional, cell-based.
A further data set concerns A549. Description: Cytotoxicity against human A549 cells assessed as inhibition of cell growth by MTT assay. In kind it is functional, cell-based.
For the next data set, the system named is MCF7. Briefly: Cytotoxicity against human MCF7 cells assessed as inhibition of cell growth by MTT assay. In kind it is functional, cell-based.
The next data set concerns HeLa. Briefly: Cytotoxicity against human HeLa cells assessed as inhibition of cell growth by MTT assay. In kind it is functional, cell-based.
For another data set, the system named is L02. Briefly: Cytotoxicity against human L02 cells assessed as inhibition of cell growth by MTT assay. In kind it is toxicity, cell-based.
The nature of data set [8]: Cytotoxicity against human HEp-2 cells assessed as reduction in cell viability incubated for 6 days by CellTiter-Glo assay. In kind it is toxicity, cell-based. As to conditions: time 6 day.
A further data set has as its system dengue virus type 3. Description: Antiviral activity against Dengue virus 3 infected in african green monkey Vero cells assessed as reduction in viral protein expression incubated for 48 hrs by indirect immunofluorescence assay. In kind it is functional, organism-based.
Data set [9] in a line: Cytotoxicity against African green monkey Vero cells incubated for 48 hrs by DAPI staining based assay. As to conditions: chlorocebus sabaeus. In kind it is toxicity, cell-based.
Data set [10] is described as follows: Selectivity index, ratio of CC50 for cytotoxicity against African green monkey Vero cells to EC50 for antiviral activity against Dengue virus 3 infected in african green monkey Vero cells. In kind it is toxicity, cell-based. As to conditions: read-out: Ratio CC50/EC50.
Data set [11] relates to Respiratory syncytial virus. Description: Antiviral activity against Respiratory syncytial virus infected in human HEp-2 cells assessed as inhibition of virus-induced cytopathic effect measured after 6 days by CellTiter-Glo assay. It counts as functional, organism-based. The note with it: HEp-2, 144 h.
The nature of data set [12]: Selectivity index, ratio of CC50 for cytotoxicity against human HEp-2 cells to EC50 for antiviral activity against Respiratory syncytial virus infected in human HEp-2 cells. In kind it is toxicity, cell-based. As to conditions: read-out: Ratio CC50/EC50.

As to `COC(=O)[C@@]12C(=O)[C@](C)(C(=O)c3cc(OC)c(O)c(O)c3C(C)=O)C(=O)[C@]1(C)C(C)=C[C@H]1[C@]3(C=O)CC[C@H](OC(C)=O)C(C)(C)[C@H]3CC[C@@]12C`, the concentration giving a half-maximal response (EC50) amounted to 14 µg/mL in the data set on Influenza A virus, 23 µM in the data set with Splenocyte [3] and 23 µM with Splenocyte [4]. Besides, the CC50 at 48 h in data set [1] is 114 µg/mL; in data set [5] it was 44 µM. Moreover, the figures for the selectivity ratio in data set [2], in data set [6] and in data set [7] were 8.1, 1.9 and 1.9, respectively. Besides, the result in the data set on HCT-116, with HT-29, in the data set with A549, in the data set with MCF7 and in the data set on HeLa was inactive. For the same compound, the Activity result in the data set with L02 is given as “Non-Toxic”.
As to `COC(=O)[C@@]12C(=O)[C@](C)(Cc3c(O)c(C)cc(C(C)=O)c3O)C(=O)[C@]1(C)C(C)=C[C@H]1[C@]3(C=O)CC[C@H](OC(C)=O)C(C)(C)[C@H]3CC[C@@]12C`, the EC50 with Influenza A virus was 19 µg/mL; with dengue virus type 3 it was > 100 µg/mL; in the data set with Splenocyte [3] it was 19 µM; in the data set with Splenocyte [4] it was > 50 µM. Moreover, the CC50 at 48 h in data set [1] is > 500 µg/mL; in data set [9] it was 73 µg/mL; in data set [5] it was > 50 µM. Also, the selectivity ratio in data set [2] is > 26; in data set [10] it was < 1; in data set [6], > 2.6. Besides, the CC50 at 144 h in [8] was 43 µg/mL. Besides, the result with HCT-116, in the data set on HT-29, in the data set with A549, in the data set with MCF7 and with HeLa was inactive. In the data set with L02, the Activity entry is “Non-Toxic”.
With `COC(=O)[C@@]12C(=O)[C@](C)(Cc3c(O)c(C)cc(C(C)=O)c3O)C(=O)[C@]1(C)C(C)=C[C@H]1[C@]3(CO)CC[C@H](OC(C)=O)C(C)(C)[C@H]3CC[C@@]12C`, the EC50 in the data set on Splenocyte [3] was > 50 µM; with Splenocyte [4], 50 µM. The CC50 at 48 h in [5] is > 50 µM. Besides, the selectivity ratio in [7] is > 1. For the same compound, the result in the data set on HCT-116, in the data set with HT-29, with A549, in the data set on MCF7 and with HeLa was inactive. In addition, in the data set on L02, the Activity result is “Non-Toxic”.
As to `COc1c(C)c2c(c(O)c1C/C=C(\C)CCC(=O)OCCN1CCOCC1)C(=O)OC2` [MYCOPHENOLATE MOFETIL], in the data set with Splenocyte [4], the half-maximal effective concentration (EC50) came to 0.48 µM.
For the compound `C#C[C@@]1(O)[C@H](O)[C@@H](CO)O[C@H]1n1ccc2c(N)ncnc21`, the EC50 in the data set on dengue virus type 3 was 1.1 µM. Also, the CC50 at 48 h in [9] was 74 µM. In addition, in data set [10], the selectivity ratio came to 67.
For the compound `CC/C=C/C=C/[C@@]1(C)OC(C[C@@H](C)[C@]2(C)C(=O)[C@]3(C)C(C)=C[C@H]4[C@]5(C=O)CC[C@H](OC(C)=O)C(C)(C)[C@H]5CC[C@]4(C)[C@]3(C(=O)OC)C2=O)=C(C(=O)OC)C1=O`, the EC50 with Splenocyte [3] stood at 23 µM; with Splenocyte [4] it was 7.5 µM. For the same compound, the CC50 at 48 h in data set [5] came out at 26 µM. Besides, the results for the selectivity ratio in data set [6] and in data set [7] were 1.1 and 3.5, respectively.
In the case of `COC(=O)[C@@]12C(=O)[C@](C)(C(=O)c3cc(OC)c(O)c(O)c3C(C)=O)C(=O)[C@]1(C)C(C)=C[C@H]1[C@]3(C)CC[C@H](OC(C)=O)C(C)(C)[C@H]3CC[C@@]12C`, the EC50 in the data set on Splenocyte [3] came out at 11 µM; in the data set with Splenocyte [4], 8.8 µM. The CC50 at 48 h in data set [5] was 21 µM. Besides, the selectivity ratio in [6] stood at 1.9; in data set [7], 2.4. The outcome with HCT-116, with HT-29, with A549, in the data set on MCF7 and with HeLa was inactive. Further, the Activity entry in the data set on L02 is “Non-Toxic”.
Turning to `NC(=O)c1ncn([C@@H]2O[C@H](CO)[C@@H](O)[C@H]2O)n1` [RIBAVIRIN], the results for the EC50 (with Influenza A virus; in data set [11]) were 4.2 µM and 5.4 µM, respectively. Also, the CC50 at 48 h in data set [1] is > 300 µM. In addition, the selectivity ratio in data set [2] is > 71; in [12], 18. Further, in data set [8], the CC50 at 144 h was 95 µM.
For the compound `COC(=O)C1=C(C[C@@H](C)[C@]2(C)C(=O)[C@]3(C)C(C)=C[C@H]4[C@]5(C=O)CC[C@H](OC(C)=O)C(C)(C)[C@H]5CC[C@]4(C)[C@]3(C(=O)OC)C2=O)O[C@](C)(/C=C/C=C/[C@H](C)O)C1=O`, the EC50 is 27 µM in the data set with Splenocyte [3] and 12 µM with Splenocyte [4]. Further, the CC50 at 48 h in data set [5] was > 50 µM. For the same compound, the selectivity ratio is > 1.9 in data set [6] and > 4.2 in [7]. Also, the result in the data set with HCT-116, in the data set with HT-29, in the data set on A549, with MCF7 and with HeLa was inactive. Besides, the Activity result in the data set with L02 is “Non-Toxic”.
Consider `CC/C=C/C=C/[C@@]1(C)OC(C[C@H](C)[C@]2(C)C(=O)[C@]3(C)C(C)=C[C@H]4[C@]5(C=O)CC[C@H](OC(C)=O)C(C)(C)[C@H]5CC[C@]4(C)[C@]3(C(=O)OC)C2=O)=C(C(=O)OC)C1=O`, for which the concentration for a half-maximal effect (EC50) with Splenocyte [3] and in the data set on Splenocyte [4] was 8.5 µM throughout. The CC50 at 48 h in data set [5] was determined as 19 µM. Further, the selectivity ratio in [6] and in data set [7] was 2.2 in each case.
